Test results: ChEMBL document CHEMBL3507680, “University of Dundee, Gates Library screen for HepG2 cell viability”

Assay: Human HepG2 cell viability assay in 384 well format
Assay type: toxicity, cell-based
Design: dose 125 nL, time 70.5 hour; concentration not given beside the values
Conditions: HepG2 cells, read-out: Inhibition

| Compound | cytotoxicity at 70.5 h |
| --- | --- |
| Cc1cc(N2CCCC2Cn2nc(C)cc2C)n2ncnc2n1 (stereo unspecified) | 29% |
| CC(C)(C)c1nc(CC(=O)Nc2cnccc2O)cs1 | -2.57% |
| O=C(CCCc1cn[nH]c1)N1C[C@@H](CN2CCOCC2)[C@@H](CO)C1 | 17.7% |
| CC(=O)N1Cc2nccn2CC(CNC(=O)c2cccnc2)C1 (stereo unspecified) | -11.5% |
| O=C(NCc1cc(-c2ccccc2)no1)NC1CCCCNC1=O (stereo unspecified) | 4.05% |
| Cc1ccc(CNC(=O)CN2CCCC(Cn3cncn3)C2)s1 (stereo unspecified) | 22.1% |
| COc1cn(CC(=O)N2CCN(c3ccc(Cl)cc3)CC2)c(C)cc1=O | 23.5% |
| CC(C)N1CCCC(CCCc2ccccn2)(C(=O)O)C1 (stereo unspecified) | -14.7% |
| Cc1cc(CNC(=O)C2CCCN2C(=O)OC(C)(C)C)no1 (stereo unspecified) | -0.379% |
| NC(=O)c1cccc(C(=O)N2CCCC(n3ccnc3)C2)c1 (stereo unspecified) | -3.58% |
| COC(=O)CC(C1=Cc2ccccc2OC1)c1oc(C)cc(=O)c1O (stereo unspecified) | 19.3% |
| O=C(c1ccc(Cl)cc1)N1CCC(N2CCCNC2=O)CC1 | -6.78% |
| Cc1nc(CCNC(=O)CC2CCN(C(C)C)CC2)sc1Cl | 45.7% |
| CC(C#N)(NC(=O)c1ccc(C#N)cc1)C1CC1 (stereo unspecified) | -0.776% |
| O=C(c1csc(-c2ccccn2)n1)N1CCCC1Cn1cccn1 (stereo unspecified) | -2.56% |
| O=C1OCCC1N1CCN(C(=O)Cc2ccccc2Cl)CC1 (stereo unspecified) | -0.257% |
| O=C1N(CC2CC2)CCCC1(O)CN1CCc2[nH]ncc2C1 (stereo unspecified) | -4.29% |
| COc1ccc(CNC(C)c2ccccc2Cl)c(OC)c1OC (stereo unspecified) | 18.3% |
| O=C(O)CN1CCC(F)(F)C2(CCN(c3ccccn3)C2)C1 (stereo unspecified) | 2.21% |
| CCn1cc(CN2CCCC3(CCC(=O)N(CCC(C)C)C3)C2)cn1 (stereo unspecified) | -1.61% |
| CC(C)c1cc(N(C)Cc2cc(C3CC3)on2)n2nccc2n1 | -8.41% |
| CCN(CC1CCCO1)C(=O)Nc1ccc(OC)c(C)c1 (stereo unspecified) | -8.02% |
| CCc1nc(C)sc1CN1CC[C@@](O)(CCOC)[C@H](C)C1 | -5.48% |

| Compound | cytotoxicity at 70.5 h |
| --- | --- |
| c1cncc(COC[C@H]2CC[C@H]3[C@H](CCN3Cc3nccs3)O2)c1 | -0.559% |
| Cn1ccc2ccc(C(=O)NC3CCOC(C)(C)C3)cc21 (stereo unspecified) | 8.55% |
| Cn1ccnc1CN1CCOC(Cc2ccccc2)C1 (stereo unspecified) | -3.39% |
| Cc1[nH]ccc1C(=O)Nc1cccc(CN2CCC(O)CC2)c1 | 1.4% |
| CCCN(C(=O)CN1CCn2c(nnc2C2CC2)C1)C1=CCCCC1 | -13.5% |
| CNS(=O)(=O)c1ccc(C(=O)NCCNc2ncccn2)cc1 | -12.3% |
| CN(Cc1noc2c1CCCC2)C(=O)C1Cc2ccccc2CN1C (stereo unspecified) | -6.59% |
| Cc1[nH]nc(CCC(=O)N2CCc3ncnc(NCCO)c3CC2)c1C | -12.5% |
| O=C(CNC(=O)c1ccccc1F)NCc1ccccn1 | -7.71% |
| Cc1nn(C)c2c(NCCn3cccn3)ncnc12 | 5.55% |
| CNCc1cn(C[C@H]2CC3CCN2C[C@@H]3C(=O)Nc2ccccc2)nn1 (stereo partly specified) | -9.94% |
| CCOC(C)C(=O)Nc1ccc2c(ccn2CC)c1 (stereo unspecified) | 1.36% |
| O=C(NCC1CC1)C1CN(C(=O)c2ccnnc2)CC12CCOCC2 (stereo unspecified) | -2.63% |
| Clc1snnc1CN1CCCC1Cn1cccn1 (stereo unspecified) | -1.24% |
| CCO[C@@H]1CCN(C(=O)c2cnc(C)cn2)[C@@H]1Cc1cnn(C)c1 | -11.6% |
| COc1cc(C)c(NC(=O)NCCn2cccc2)cc1OC | 10.3% |
| Cc1occc1C(=O)N1CCC[C@]2(C[C@@H](OCc3ccncc3)CO2)C1 | 6.49% |
| COc1cc(F)ccc1N(C)Cc1cccnc1 | 15.7% |
| Cc1cccnc1C(=O)N1CCC(Cc2cnc3[nH]ccc3c2)CC1 | 21.2% |
| CCCc1nc(N2CCCN(c3ncccn3)CC2)c2cnn(C)c2n1 | 4.78% |
| CCC(CNC(=O)N1CCOCC2(CCOCC2)C1)c1ccccc1 (stereo unspecified) | -5.59% |
| CCOc1cc(Cl)ccc1CNC(=O)c1ccc(=O)n(C)c1 | 11.4% |
| O=C(O)c1ccccc1-c1ccc(CN2CCC(CO)C2)cn1 (stereo unspecified) | 15.8% |
